{"source": "patent US20250214951A1", "about": "“3-PHENYLISOXAZOLE DERIVATIVE, AND PHARMACEUTICAL COMPOSITION FOR PREVENTING OR TREATING EYE DISEASE, CONTAINING SAME AS ACTIVE INGREDIENT” (VASTHERA CO., LTD., priority 2022, published 2025)", "type_in_all_cases": "cell-based, human", "key": {"A2E-BDP in ARPE-19 cells [1]": {"tested_on": "A2E-BDP in ARPE-19 cells", "assay": "A2E-BDP removal ability by concentration of other example compounds", "conditions": "indicated concentrations; FIG. 13", "description": "The human retinal pigment epithelial cell line (ARPE-19) used in the experiment was provided by ATCC (American Type Culture Collection). The ARPE-19 cell line was cultured in DMEM medium containing 10% FBS. After culture, the cells were dispensed into 96-well plates at a concentration of 4×10^3 cells/well and cultured for 24 hours. The ARPE-19 cell line was treated with A2E-fluorescent labeling substance (A2E-BDP) at a concentration of 10 μM for 24 hours to induce the accumulation of A2E-BDP in the ARPE-19 cell line.\nIn order to evaluate the intracellular A2E removal ability of the compound of the present invention, an easily detectable A2E-fluorescent labeling substance (A2E-BDP) was used. The ARPE-19 cells prepared by the above method were treated with each test compound at a concentration of 50 μM once, and then cultured for 24 hours. The cells were lysed by adding a cell lysis buffer containing a protease inhibitor (50 mM Tris-chloride, pH 8.0, 150 mM sodium chloride, 1% NP-40, 1% sodium deoxycholate, 1% sodium dodecyl sulfate, and 2 mM ethylenediamine tetraacetic acid) to each 96-well. The prepared cell lysate was transferred to a white 96-well plate, and the fluorescence intensity was measured using a fluorescence microplate reader (VICTOR™ X3, Perkin Elmer, USA) (excitation 485 nm, emission 535 nm).\nThe A2E-fluorescent labeling substance (A2E-BDP) removal ability was evaluated according to Experimental Example 1 (except that the test compound was treated at the indicated concentration)."}, "LC3-II (autophagy flux) [2]": {"tested_on": "LC3-II (autophagy flux)", "assay": "Autophagy flux in ARPE-19 with or without bafilomycin A1", "conditions": "10, 25, 50 μM, 12 h, bafilomycin A1 2 nM 4 h, FIG. 7", "description": "Autophagy flux was measured by comparing the degree of change in LC3-II protein formation by treatment with example 17 compound of the present invention in the presence and absence of bafilomycin A1 (Abcam, Cambridge, United Kingdom) by Western blotting (Seranova E. et al. Autophagy: Methods and Protocols, Methods in Molecular Biology, vol. 1880, pp 389-428, 2019, https://doi.org/10.1007/978-1-4939-8873-0_26).\nThe autophagy flux measurement in this experiment used saturating concentrations of bafilomycin A1, known as an autophagy inhibitor. […] Therefore, the effect of the example compound of the present invention on autophagy flux can be determined by examining the level of LC3-II following treatment with the example compound of the present invention in the presence or absence of saturating concentrations of bafilomycin A1.\nSpecifically, in this experiment, ARPE-19 cell lines were seeded in 6-well plates at a concentration of 1×10^5 cells/well and cultured for 24 hours. […] The LC3-II level was measured by the Western immunoblotting method using a specific anti-LC3-II antibody (Cell Signaling Technology, MA, USA). Meanwhile, after treating with example 17 compound in the same manner as above under the condition of treating with bafilomycin A1 at a concentration of 2 nM for 4 hours, the amount of LC3-II was measured by the Western immunoblotting method. […]"}, "LC3-II (autophagy flux) [3]": {"tested_on": "LC3-II (autophagy flux)", "assay": "Autophagy flux in A2E-accumulated ARPE-19 with or without bafilomycin", "conditions": "A2E 25 μM 24 h; 10, 25, 50 μM, 12 h; bafilomycin 2 nM 4 h; FIG. 9", "description": "It was measured whether example 17 compound of the present invention increases autophagy flux in the ARPE-19 cell line in which A2E is accumulated. That is, the ARPE-19 cell line was dispensed into a 6-well plate at a concentration of 1×10^5 cells/well and cultured for 24 hours. The cells were treated with A2E at a concentration of 25 μM for 24 hours. The cells were treated with example 17 compound of the present invention at concentrations of 10, 25, and 50 μM for 12 hours each. The method of treating with bafilomycin (2 nM for 4 hours), preparing cell lysate, and measuring LC3-II by Western method was the same as in Experimental Example 8."}, "A2E-BDP in ARPE-19 cells [4]": {"tested_on": "A2E-BDP in ARPE-19 cells", "assay": "Removal of A2E-BDP by concentration, fluorescence and phase contrast microscopy", "description": "ARPE-19 cell line was dispensed into a 24-well plate at a concentration of 4×10^4 cells/well and cultured for 24 hours. In order to induce A2E-BDP accumulation in ARPE-19 cell line, the cells were treated with […] of 10 μM for 24 hours. The A2E-BDP-containing ARPE-19 cells were treated with compound 17 (10, 25, 50 μM) for 24 hours. The level of A2E-BDP in each cell was measured as a fluorescence image at 510 nm using a Nikon Eclipse Ti—U fluorescence microscope (Tokyo, Japan). In addition, the change in cell number according to compound treatment was observed using a general phase contrast microscope, and the results are shown in FIG. 1. Meanwhile, lutein was used as a control substance."}}, "data": [{"smiles": "C=CCOCc1cc(-c2cc(CC=C)ccc2OC)no1", "note": "[Example 17, 3-(5-allyl-2-methoxyphenyl)-5-((allyloxy)methyl)isoxazole]", "values": [{"measurement": "A2E-BDP removal ability by concentration (amount of A2E)", "setting": "A2E-BDP in ARPE-19 cells [1]", "result": "concentration-dependent decrease in the amount of A2E"}, {"measurement": "autophagy flux (difference in LC3-II with/without bafilomycin A1)", "setting": "LC3-II (autophagy flux) [2]", "result": "significantly increases autophagy flux"}, {"measurement": "autophagy flux in A2E-accumulated ARPE-19", "setting": "LC3-II (autophagy flux) [3]", "result": "significantly increased the autophagy flux"}, {"measurement": "cytotoxicity against ARPE-19 cells (cell number, phase contrast microscope)", "setting": "A2E-BDP in ARPE-19 cells [4]; 10, 25, 50 μM, 24 h", "result": "no cytotoxicity"}, {"measurement": "A2E-BDP fluorescence intensity (fluorescence microscope)", "setting": "A2E-BDP in ARPE-19 cells [4]; ARPE-19 with A2E-BDP, 10, 25, 50 μM, 24 h, FIG. 1", "result": "a decrease in fluorescence intensity was observed in a concentration-dependent manner"}, {"measurement": "A2E-BDP removal ability compared with lutein", "setting": "A2E-BDP in ARPE-19 cells [4]; FIG. 1", "result": "better A2E-BDP removal ability than lutein"}]}]}
